The supplement of paper PMC10307832

Columns and labels:
Test in all cases: relative viability (nuclei count vs DMSO), 5 days (fraction); higher = more cells survive
[1] = compound: C[C@]12O[C@H](C[C@]1(O)CO)n1c3ccccc3c3c4c(c5c6ccccc6n2c5c31)CNC4=O [Lestaurtinib] + CC(=O)c1c(C)c2cnc(Nc3ccc(N4CCNCC4)cn3)nc2n(C2CCCC2)c1=O [Palbociclib] (partner 0.5 µM)
Outline: (§1)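 Lung cancer cell lines in 1536-well plates got either a single drug or a fixed anchor-drug dose together with five library-drug doses (not always all listed) in √10 steps, by pin tool, on the day after seeding. Nuclei were counted after 5 days, and relative viability is the treated-to-vehicle ratio of nuclei counts. Values are medians of duplicate plates.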

TPCA-1 + Navitoclax = compound: C1=CC(=CC=C1C2=CC(=C(S2)NC(=O)N)C(=O)N)F [TPCA-1] + CC1(C)CCC(c2ccc(Cl)cc2)=C(CN2CCN(c3ccc(C(=O)NS(=O)(=O)c4ccc(N[C@H](CCN5CCOCC5)CSc5ccccc5)c(S(=O)(=O)C(F)(F)F)c4)cc3)CC2)C1 [Navitoclax] (partner 0.5 µM)
Outline: as §1

Lestaurtinib + Lapatinib = compound: C[C@]12O[C@H](C[C@]1(O)CO)n1c3ccccc3c3c4c(c5c6ccccc6n2c5c31)CNC4=O [Lestaurtinib] + CS(=O)(=O)CCNCc1ccc(-c2ccc3ncnc(Nc4ccc(OCc5cccc(F)c5)c(Cl)c4)c3c2)o1 [Lapatinib] (partner 2 µM)
Outline: as §1

[2] = compound: C[C@]12O[C@H](C[C@]1(O)CO)n1c3ccccc3c3c4c(c5c6ccccc6n2c5c31)CNC4=O [Lestaurtinib] + CCNC(=O)c1noc(-c2cc(C(C)C)c(O)cc2O)c1-c1ccc(CN2CCOCC2)cc1 [Luminespib] (partner 0.01 µM)
Outline: as §1

Cell Line | relative viability ([1]; first compound 0.005 µM) | relative viability ([1]; first compound 0.01581 µM) | relative viability ([1]; first compound 0.05 µM) | relative viability ([1]; first compound 0.1581 µM) | relative viability ([1]; first compound 0.5 µM) | relative viability (TPCA-1 + Navitoclax; first compound 0.04 µM) | relative viability (TPCA-1 + Navitoclax; first compound 0.1265 µM) | relative viability (TPCA-1 + Navitoclax; first compound 0.4 µM) | relative viability (TPCA-1 + Navitoclax; first compound 1.265 µM) | relative viability (TPCA-1 + Navitoclax; first compound 4 µM) | relative viability (Lestaurtinib + Lapatinib; first compound 0.005 µM) | relative viability (Lestaurtinib + Lapatinib; first compound 0.01581 µM) | relative viability (Lestaurtinib + Lapatinib; first compound 0.05 µM) | relative viability (Lestaurtinib + Lapatinib; first compound 0.1581 µM) | relative viability (Lestaurtinib + Lapatinib; first compound 0.5 µM) | relative viability ([2]; first compound 0.005 µM) | relative viability ([2]; first compound 0.01581 µM) | relative viability ([2]; first compound 0.05 µM) | relative viability ([2]; first compound 0.1581 µM) | relative viability ([2]; first compound 0.5 µM)
HCC-44 | 0.958 | 1 | 1.04 | 1.1 | 0.732 | 0.973 | 0.983 | 1.04 | 0.927 | 0.915 | 0.985 | 1.14 | 0.851 | 1.14 | 0.479 | 1.14 | 1.22 | 0.623 | 0.873 | 0.308
HCC-78 | 0.453 | 0.545 | 0.53 | 0.557 | 0.427 | 0.973 | 0.653 | 0.726 | 0.652 | 0.582 | 0.507 | 1.03 | 0.54 | 0.272 | 0.289 | – | – | – | – | –
HCC-366 | 0.371 | 0.424 | 0.471 | 0.391 | 0.172 | 1.01 | 0.942 | 1.14 | 0.952 | 1 | 1.16 | 1.16 | 0.79 | 1 | 0.0272 | – | – | – | – | –
HCC-827 | 0.533 | 0.489 | 0.444 | 0.382 | 0.43 | 0.996 | 1.04 | 1.04 | 1 | 0.683 | 0.201 | 0.197 | 0.212 | 0.188 | 0.192 | 0.332 | 0.505 | 0.344 | 0.289 | 0.33
HOP-62 | 0.491 | 0.539 | 0.496 | 0.468 | 0.335 | 0.982 | 1.06 | 1.02 | 0.899 | 0.809 | 0.889 | 1.17 | 1.02 | 1.08 | 0.93 | 0.9 | 1.07 | 0.855 | 0.913 | 0.274
IA-LM | – | – | – | – | – | 0.855 | 0.595 | 0.72 | 0.617 | 0.678 | 1 | 1.06 | 0.91 | 0.905 | 0.396 | – | – | – | – | –
LC-2-ad | 0.59 | 0.527 | 0.418 | 0.429 | 0.293 | 0.361 | 0.377 | 0.414 | 0.357 | 0.11 | 1.17 | 1.07 | 0.62 | 0.266 | 0.19 | 1.1 | 1.21 | 0.799 | 0.617 | 0.372
LCLC-97TM1 | – | 0.243 | 0.133 | 0.134 | 0.194 | 0.394 | 0.494 | 0.446 | 0.259 | 0.238 | 1.18 | 1.18 | 0.767 | 0.196 | 0.163 | 0.71 | 0.678 | 0.363 | 0.62 | 0.233
LCLC-103H | 0.524 | 0.506 | 0.497 | 0.474 | 0.51 | – | – | – | – | – | – | – | – | – | – | 1.04 | 1.08 | 0.767 | 0.501 | 0.34
LK-2 | 0.705 | 0.833 | 0.756 | 0.53 | 0.307 | 0.868 | 0.664 | 0.955 | 0.778 | 0.71 | 0.89 | 1.07 | 0.64 | 0.496 | 0.283 | 0.202 | 0.19 | 0.17 | 0.208 | 0.203
NCI-H358 | 0.132 | 0.131 | 0.14 | 0.111 | 0.108 | – | – | – | – | – | 0.466 | 0.423 | 0.374 | 0.268 | 0.279 | 0.446 | 0.325 | 0.378 | 0.149 | 0.121
NCI-H441 | 0.192 | 0.238 | 0.225 | 0.199 | 0.207 | 0.604 | 0.405 | 0.736 | 0.578 | 0.297 | – | – | – | – | – | 0.375 | 0.277 | 0.329 | 0.399 | 0.409
NCI-H522 | 0.998 | 1 | 0.879 | 0.871 | 0.631 | – | – | – | – | – | – | – | – | – | – | 1.3 | 1.01 | 1.08 | 1.03 | 0.699
NCI-H596 | – | – | – | – | – | 0.88 | 0.932 | 1.07 | 0.996 | 1.07 | 1.22 | 1.03 | 0.973 | 1.26 | 0.843 | 0.959 | 1.12 | 1.03 | 1.27 | 0.953
NCI-H650 | 0.315 | 0.323 | 0.249 | 0.236 | 0.229 | – | – | – | – | – | 0.732 | 1.22 | 0.455 | 0.421 | 0.26 | 0.824 | 0.703 | 0.635 | 0.322 | 0.239
NCI-H661 | 0.423 | 0.413 | 0.445 | 0.467 | 0.317 | – | – | – | – | – | 0.466 | 0.608 | 0.444 | 0.444 | 0.323 | 0.895 | 0.88 | 0.853 | 0.729 | 0.363
NCI-H1299 | – | – | – | – | – | 1.08 | 1.02 | 1.02 | 1.04 | 1.07 | 0.972 | 1.01 | 0.893 | 0.862 | 0.479 | – | – | – | – | –
NCI-H1563 | – | – | – | – | – | – | – | – | – | – | 1.1 | 0.947 | 1.06 | 1.05 | 0.776 | 0.554 | 0.495 | 0.546 | 0.5 | 0.48
NCI-H1623 | – | – | – | – | – | – | – | – | – | – | – | – | – | – | – | 0.6 | 0.617 | 0.406 | 0.352 | 0.444
NCI-H1648 | – | 0.317 | – | 0.393 | 0.466 | – | – | – | – | – | – | – | – | – | – | – | – | – | – | –
NCI-H1703 | – | – | – | – | – | 1.18 | 0.955 | 1.12 | 0.774 | 0.807 | 1.07 | 1.09 | 0.597 | 0.278 | 0.123 | – | – | – | – | –
NCI-H2342 | 0.518 | 0.439 | 0.545 | 0.526 | 0.504 | – | – | – | – | – | – | – | – | – | – | 0.779 | 0.624 | 0.651 | 0.738 | 0.7
SW 900 | 0.561 | 0.666 | 0.611 | 0.828 | 0.595 | – | – | – | – | – | – | – | – | – | – | 0.172 | 0.146 | 0.151 | 0.159 | 0.178
